Source: patent US20130143886A1, “METHODS FOR PRESERVING AND/OR INCREASING RENAL FUNCTION USING XANTHINE OXIDOREDUCTASE INHIBITORS” (priority 2006, published 2013)

Experiments:
[1] = test system: human subjects with a history of nephrolithiasis; assay: Adverse events and discontinuations in the double-blind and open-label febuxostat study; format: in vivo
Description: (1) febuxostat 40 mg per day, (2) febuxostat 80 mg per day, (3) febuxostat 120 mg per day, or (4) placebo. Subjects completing the double-blind study entered an open-label, long-term study and began treatment with 80 mg febuxostat per day. Febuxostat doses could be titrated over the initial 6 months to 40 mg or 120 mg febuxostat per day based on the subjects' serum urate levels and the occurrence of adverse events.

remnant kidney (RK) rats = assay: Micropuncture procedure to assess glomerular hemodynamics; format: in vivo, Male Wistar rats; conditions: for GFR / Kf / PGC / QA / SNGFR / MAP: end of four weeks; for MAP: under anesthesia
Description: Male Wistar rats (295-340 g) were used to produce rats with remnant kidney (RK) as follows. […] Rats were then assigned to one of four treatment groups: Group 1, RK control rats (n=7); Group 2, RK+febuxostat (Fx) rats (n=8); […] Oxonic acid (OA) (Sigma-Aldrich, St Louis Mo., USA), administered at 750 mg/kg body weight daily by oral gavage, was given starting the day after the 5⁄6 nephrectomy. […] All groups were treated for four weeks. Body weight (beginning just before surgery) and food and water intakes were measured daily. Systolic blood pressure, measured in conscious rats by a tail cuff sphygmomanometer, and plasma uric acid (UA) levels were measured at just before surgery (namely, at baseline) and at the end of the four weeks. Proteinuria was measured at baseline and at the end of two and four weeks. A renal micropuncture procedure along with systemic blood pressure monitoring under pentobarbital anesthesia was performed at the end of four weeks followed by morphologic evaluation of the renal preglomerular microvasculature. Animals were anesthetized with pentobarbital sodium (30 mg/kg, intraperitoneal (ip)) and placed on a thermoregulated table to maintain body temperature at 37° C. Trachea, jugular veins, femoral arteries and the left ureter were catheterized with polyethylene tubing (PE-240, PE-50, and PE-10). The left kidney was exposed, placed in a Lucite holder, sealed with agar, and covered with Ringer's solution. Mean arterial pressure (MAP) was monitored with a pressure transducer (Model p23 db; Gould, San Juan, Puerto Rico) connected to the catheter in the femoral artery and recorded on a polygraph (Grass Instruments, Quincy, Mass., USA). Blood samples were taken periodically and replaced with blood from a donor rat. Rats were maintained under euvolemic conditions by infusion of 10 mL/kg of body weight of isotonic rat plasma during surgery, followed by an infusion of 25%, polyfructosan, at 2.2 ml/h (Inutest; Fresenius Kabi, Linz, Austria). After 60 minutes, five to seven samples of proximal tubular fluid were obtained to determine flow rate and polyfructosan concentrations. Intratubular pressure under free-flow (FF) and stop-flow (SFP) conditions and peritubular capillary pressure (Pc) were measured in other proximal tubules with a servo-null device (Servo Nulling Pressure System; Instrumentation for Physiology and Medicine, San Diego, Calif., USA). Glomerular colloid osmotic pressure was estimated from protein concentrations obtained from blood of the femoral artery (Ca) and surface efferent arterioles (Ce). Polyfructosan was measured in plasma and urine samples by the anthrone-based technique described by Davidson and […] in “Simplification of the anthrone method for the determination of inulin in clearance studies,” J Lab Clin Med. 62:351-356 (1963), the contents of which are herein incorporated by reference. In brief, plasma samples were deproteinated first with trichloroacetic acid. After centrifugation, the supernatant was used for polyfructosan measurement. Polyfructosan concentrations in plasma and urine samples were assessed by the addition of anthrone reagent followed by incubation at 45° C. for 50 minutes and reading in a spectrophotometer set at wavelength of 620 nm. […] Total GFR was calculated using the following formula: GFR=(U×V)/P, where U is the polyfructosan concentration in urine, V is urine flow rate, and P is the polyfructosan concentration in plasma. The volume of fluid collected from individual proximal tubules was estimated from the length of the fluid column in a constant-bore capillary tube of known internal diameter. The concentration of tubular polyfructosan was measured by the microfluorometric method described by Vurek and Pegram in “Fluorometric method for the determination of nanogram quantities of inulin,” Anal Biochem 16:409-419 (1966), the contents of which are herein incorporated by reference. […]

[2] = test system: hyperuricemic gout patients; assay: FOCUS long-term open-label study: safety
[3] = number of subjects, N = 18, open-label study
[4] = RK + OA + Fx group (OA-induced hyperuricemia)
[5] = RK rats (RK + Fx or RK + OA group)
[6] = adverse events, N = 116, PY = 385.6
[7] = serious adverse events, N = 116, PY = 385.6

SMILES: Cc1nc(-c2ccc(OCC(C)C)c(C#N)c2)sc1C(=O)O [febuxostat, 2-[3-cyano-4-(2-methylpropoxy)phenyl]-4-methylthiazole-5-carboxylic acid]
- Diarrhea (excluding infectious) [1, 3]: 7
- Edema NEC [1, 3]: 3
- Gastrointestinal and Abdominal Pains (excluding oral and throat) [1, 3]: 3
- Joint Related Signs and Symptoms [1, 3]: 6
- Lower Respiratory Tract and Lung Infections [1, 3]: 5
- Musculoskeletal and Connective Tissue Signs and Symptoms NEC [1, 3]: 5
- Non-Site Specific Injuries [1, 3]: 4
- Rashes, Eruptions and Exanthems NEC [1, 3]: 3
- Total Subjects with ≧1 AE [1, 3]: 17
- Upper Respiratory Infections [1, 3]: 12
- Urinary Tract Infections [1, 3]: 3
- Serum creatinine at Withdrawal (adverse event Increased Creatinine) ([1]; one subject, open-label, Baseline: 1.6 mg/dL): 2.1 mg/dL
- Serum creatinine at Follow-up (adverse event Increased Creatinine) ([1]; one subject, Follow-up Day 163, two weeks off study medication): 1.9 mg/dL
- GFR (remnant kidney (RK) rats; [4]): 0.44 ± 0.05 mL/min
- Kf (remnant kidney (RK) rats; [4]): 0.037 ± 0.004 nL/s · mmHg
- PGC (remnant kidney (RK) rats; [4]): 52.0 ± 1.2 mmHg
- QA (remnant kidney (RK) rats; [4]): 151 ± 19 nL/min
- SNGFR (remnant kidney (RK) rats; [4]): 42.2 ± 4.9 nL/min
- MAP (remnant kidney (RK) rats; [4]): 172 ± 8 mmHg
- GFR (remnant kidney (RK) rats; [5]): 0.51 ± 0.04 mL/min
- Kf (remnant kidney (RK) rats; [5]): 0.035 ± 0.005 nL/s · mmHg
- PGC (remnant kidney (RK) rats; [5]): 52.2 ± 1.9 mmHg
- QA (remnant kidney (RK) rats; [5]): 142 ± 11 nL/min
- SNGFR (remnant kidney (RK) rats; [5]): 36.7 ± 3.1 nL/min
- MAP (remnant kidney (RK) rats; [5]): 189 ± 8 mmHg
- GFR (in words) (remnant kidney (RK) rats; RK+Fx and RK+OA+Fx rats vs the two untreated groups): increase GFR compared to the two untreated groups
- Single-nephron hyperfiltration (in words) (remnant kidney (RK) rats; RK+Fx and RK+OA+Fx rats, normal glomerular pressure and plasma flow maintained): prevented single-nephron hyperfiltration
- Afferent arteriolar resistances (in words) (remnant kidney (RK) rats; RK+OA+Fx rats vs untreated cohorts): higher afferent arteriolar resistances compared to their respective untreated cohorts
- Subjects reporting serious adverse events (SAEs) ([2]; 21/116 subjects): 18%
- Athralgia, rate [2, 6]: 13.0 per 100 PY
- Diarrhea, rate [2, 6]: 7.8 per 100 PY
- Headaches, rate [2, 6]: 20.5 per 100 PY
- Influenza viral infections, rate [2, 6]: 7.3 per 100 PY
- Limb injuries, rate [2, 6]: 5.4 per 100 PY
- Liver function analyses, rate [2, 6]: 6.3 per 100 PY
- Lower respiratory tract infections, rate [2, 6]: 8.8 per 100 PY
- Musculoskeletal pain, rate [2, 6]: 23.6 per 100 PY
- Paresthesias and dysesthesias, rate [2, 6]: 6.2 per 100 PY
- Upper respiratory tract infections, rate [2, 6]: 37.8 per 100 PY
- Deaths during the study ([2]; in vivo): No subjects died
- Cardiac disorders, rate [2, 7]: 1.6 per 100 PY
- Gastrointestinal disorders, rate [2, 7]: 0.8 per 100 PY
- General disorders and administration site conditions, rate [2, 7]: 0.3 per 100 PY
- Hepatobiliary disorders, rate [2, 7]: 0.5 per 100 PY
- Infections and infestations, rate [2, 7]: 1.3 per 100 PY
- Injury, poisoning and procedural complications, rate [2, 7]: 1.0 per 100 PY
- Musculoskeletal and connective tissue disorders, rate [2, 7]: 1.6 per 100 PY
- Neoplasms - bening, malignant and unspecified, rate [2, 7]: 1.0 per 100 PY
- Nervous system disorders, rate [2, 7]: 0.5 per 100 PY
- Psychiatric disorders, rate [2, 7]: 0.3 per 100 PY
- Renal and urinary disorders, rate [2, 7]: 0.3 per 100 PY
- Subjects reporting at least one AE during the study ([2]; subjects of 116 (Ninety-one percent)): 106/116
- Reported rates of adverse events across renal function (in words) ([2]; throughout the range of renal function encountered): no quantitative difference
